Measured values taken from US8470851B2, “Substituted acetylenic imidazo[1,2-A]pyridine compounds as kinase inhibitors” (ARIAD Pharmaceuticals, Inc., priority 2005, dated 2013).

Target: T1, BaF3 cells transfected with the Bcr-Abl T315I mutant (Homo sapiens, UniProt P00519, T315I, cells depend on it)
T1 construct: fused on or other part: P11274 (Breakpoint cluster region protein)
Experiment: Ba/F3 cell proliferation assay, Bcr-Abl T315I (CellTiter 96 AQueous One);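 note: murine pro-B Ba/F3 line, tetrazolium turned into formazan and read by absorbance, compound dilution series, values as percent of DMSO-treated control, IC50 from fitted curves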
Type: cell-based, murine
Settings: Ba/F3 cells expressing Bcr-Abl T315I, 3 days incubation; read-out: T315l cell proliferation

GI50, < 1 µM:
Cc1ccc(C(=O)Nc2ccc(CN3CCNCC3)c(C(F)(F)F)c2)cc1C#Cc1cnc2cnccn12
Cc1ccc(C(=O)Nc2cc(C(F)(F)F)ccn2)cc1C#Cc1cnc2c(NC(N)=O)cccn12
CN1CCN(Cc2ccc(NC(=O)c3ccc(F)c(C#Cc4cnc5cnccn45)c3)cc2C(F)(F)F)CC1
CCN1CCN(Cc2ccc(NC(=O)c3ccc(C)c(C#Cc4cnc5cnccn45)c3)cc2C(F)(F)F)CC1
Cc1ccc(C(=O)Nc2ccc(CN3CCN(C)CC3)c(C(F)(F)F)c2)cc1C#Cc1cnn2c(N)ncnc12
Cc1ccc(C(=O)Nc2ccc(CN3CCN(C(C)C)CC3)c(C(F)(F)F)c2)cc1C#Cc1cnc2cnccn12
CNC(=O)Nc1cccn2c(C#Cc3cc(C(=O)Nc4cc(C(F)(F)F)ccn4)ccc3C)cnc12
Cc1ccc(C(=O)Nc2cc(C(C)(C)C)on2)cc1C#Cc1cnc2c(NC(N)=O)cccn12
Cc1ccc(C(=O)Nc2cc(-n3ccnc3)cc(C(F)(F)F)c2)cc1C#Cc1cnc2c(NC(N)=O)cccn12
CN1CCN(Cc2ccc(NC(=O)c3ccc(Cl)c(C#Cc4cnc5ccccn45)c3)cc2C(F)(F)F)CC1
Cc1ccc(C(=O)Nc2cc(C(F)(F)F)ccn2)cc1C#Cc1cnc2c(NC(=O)N(C)C)cccn12
Cc1ccc(C(=O)Nc2cc(C(F)(F)F)ccn2)cc1C#Cc1cnc2c(NC(=O)C3CC3)cccn12
CN1CCN(Cc2ccc(NC(=O)c3ccc(F)c(C#Cc4cnc5ccccn45)c3)cc2C(F)(F)F)CC1
COC(=O)Nc1cccn2c(C#Cc3cc(C(=O)Nc4cc(C(F)(F)F)ccn4)ccc3C)cnc12
Cc1ccc(C(=O)Nc2cc(-n3ccnc3)cc(C(F)(F)F)c2)cc1C#Cc1cnc2c(NC(=O)OC(C)(C)C)cccn12
Cc1ccc(C(=O)Nc2ccc(OC3CCN(C)CC3)c(C(F)(F)F)c2)cc1C#Cc1cnc2cnccn12
CN1CCN(Cc2ccc(NC(=O)c3cccc(C#Cc4cnc5ccccn45)c3)cc2C(F)(F)F)CC1
Cc1ccc(C(=O)Nc2cc(Cn3ccnc3)cc(C(F)(F)F)c2)cc1C#Cc1cnc2ccccn12
Cc1ccc(C(=O)Nc2cc(-n3ccnc3)cc(C(F)(F)F)c2)cc1C#Cc1cnn2cccnc12
Cc1ccc(C(=O)Nc2cc(Cn3ccnc3)cc(C(F)(F)F)c2)cc1C#Cc1cnc2cnccn12
CC(=O)Nc1cccn2c(C#Cc3cc(C(=O)Nc4cc(C(F)(F)F)ccn4)ccc3C)cnc12
Cc1ccc(C(=O)Nc2cc(C(F)(F)F)ccn2)cc1C#Cc1cnc2c(Nc3ccc(S(N)(=O)=O)cc3)cccn12
CN1CCN(Cc2ccc(NC(=O)c3cccc(C#Cc4cnc5cnccn45)c3)cc2C(F)(F)F)CC1
Cc1ccc(C(=O)Nc2cc(-n3cnc(C#N)c3)cc(C(F)(F)F)c2)cc1C#Cc1cnc2cnccn12
Cc1ccc(C(=O)Nc2cc(-n3ccnc3)cc(C(F)(F)F)c2)cc1C#Cc1cnc2c(Nc3cccc(C(N)=O)c3)cccn12
Cc1ccc(C(=O)Nc2cc(C(F)(F)F)ccn2)cc1C#Cc1cnc2c(Nc3ccc(S(C)(=O)=O)cc3)cccn12
Cc1ccc(C(=O)Nc2cc(-n3cnc(CCN4CCCC4)c3)cc(C(F)(F)F)c2)cc1C#Cc1cnc2ccccn12
CC(C)N1CCN(Cc2ccc(NC(=O)c3cncc(C#Cc4cnc5cnccn45)c3)cc2C(F)(F)F)CC1
Cc1ccc(C(=O)Nc2cc(-n3ccnc3CN(C)C)cc(C(F)(F)F)c2)cc1C#Cc1cnc2cnccn12
Cc1ccc(C(=O)Nc2ccc(CN3CCC(N(C)C)CC3)c(C(F)(F)F)c2)cc1C#Cc1cnc2cnccn12
Cc1ccc(C(=O)Nc2cc(-n3ccnc3)cc(C(F)(F)F)c2)cc1C#Cc1cnc2cnccn12
CC(C)N1CCN(Cc2ccc(NC(=O)c3cccc(C#Cc4cnc5cnccn45)c3)cc2C(F)(F)F)CC1
Cc1ccc(C(=O)Nc2cc(CN3CCCC3)cc(C(F)(F)F)c2)cc1C#Cc1cnc2cnccn12
Cc1cn(-c2cc(NC(=O)c3ccc(C)c(C#Cc4cnc5ccccn45)c3)cc(C(F)(F)F)c2)cn1
Cc1ccc(C(=O)Nc2ccc(CN3CCN(C)CC3)c(C(F)(F)F)c2)cc1C#Cc1cnn2cccnc12
CN1CCN(Cc2ccc(NC(=O)c3ccc(C#Cc4cnc5ccccn45)o3)cc2C(F)(F)F)CC1
Cc1ccc(C(=O)Nc2ccc(CN3CCNC(=O)C3)c(C(F)(F)F)c2)cc1C#Cc1cnc2ccccn12
Cc1ccc(C(=O)Nc2cc(-n3cnc(C#N)c3)cc(C(F)(F)F)c2)cc1C#Cc1cnc2ccccn12
Cc1ccc(C(=O)Nc2cc(-n3cnc(CN4CCCC4)c3)cc(C(F)(F)F)c2)cc1C#Cc1cnc2cnccn12
Cc1ccc(C(=O)Nc2ccc(CN3CCC(N(C)C)CC3)c(C(F)(F)F)c2)cc1C#Cc1cnc2ccccn12
CN1CCN(Cc2ccc(C(=O)Nc3cccc(C#Cc4cnc5cnccn45)c3)cc2C(F)(F)F)CC1
Cc1ccc(C(=O)Nc2cc(C(C)(C)C)on2)cc1C#Cn1cnc2c(NC3CC3)ncnc21
Cc1ccc(C(=O)Nc2cc(C(F)(F)F)ccn2)cc1C#Cc1cnn2cccnc12
Cc1ccc(C(=O)Nc2ccc(CN3CCOCC3)c(C(F)(F)F)c2)cc1C#Cc1cnc2cnccn12
Cc1ccc(C(=O)Nc2cc(C(F)(F)F)ccn2)cc1C#Cc1cnc2c(N)cccn12
Cc1ccc(C(=O)Nc2cc(CN3CCCC3)cc(C(F)(F)F)c2)cc1C#Cc1cnc2ccccn12
Cc1ccc(C(=O)Nc2cc(CN3CCOCC3)cc(C(F)(F)F)c2)cc1C#Cc1cnc2cnccn12
Cc1ccc(C(=O)Nc2ccc(CN3CCCC3)c(C(F)(F)F)c2)cc1C#Cc1cnc2cnccn12
Cc1ccc(C(=O)Nc2ccc(Cn3ccnc3)c(C(F)(F)F)c2)cc1C#Cc1cnc2cnccn12
Cc1ccc(C(=O)Nc2cc(C(F)(F)F)ccn2)cc1C#Cc1cnn2c(N)ncnc12
Cc1ccc(C(=O)Nc2ccc(Cn3ccnc3)c(C(F)(F)F)c2)cc1C#Cc1cnc2ccccn12
Cc1ccc(C(=O)Nc2cc(CN3CCOCC3)cc(C(F)(F)F)c2)cc1C#Cc1cnc2ccccn12
CC(=O)Nc1cccn2c(C#Cc3cc(C(=O)Nc4cccc(C(F)(F)F)c4)ccc3C)cnc12
Cc1ccc(C(=O)Nc2cc(-n3cnc(CCN4CCCC4)c3)cc(C(F)(F)F)c2)cc1C#Cc1cnc2cnccn12
CC(=O)Nc1ncnc2c(C#Cc3cc(C(=O)Nc4cc(C(F)(F)F)ccn4)ccc3C)cnn12
Cc1ccc(C(=O)Nc2cc(C(F)(F)F)ccn2)cc1C#Cc1cnc2c(NC(=O)C3CCC3)cccn12
CC(C)(C)c1cc(NC(=O)c2cccc(C#Cc3cnc4ccccn34)c2)no1
Cc1ccc(C(=O)Nc2ccc(CN3CC[C@@H](N(C)C)C3)c(C(F)(F)F)c2)cc1C#Cc1cnc2cccnn12 (racemic)
Cc1ccc(C(=O)Nc2ccc(CN3CC[C@@H](O)C3)c(C(F)(F)F)c2)cc1C#Cc1cnc2ccccn12 (racemic)
Cc1ccc(C(=O)Nc2ccc(CN3CC[C@@H](N(C)C)C3)c(C(F)(F)F)c2)cc1C#Cc1cnc2cnccn12 (stereo in doubt)
Cc1ccc(C(=O)Nc2ccc(CN3CC[C@H](N(C)C)C3)c(C(F)(F)F)c2)cc1C#Cc1cnc2cnccn12 (stereo in doubt)
